What all share (type): functional, cell-based
For experiment [1], the target named is T1, Glucagon-like peptide 1 receptor (Homo sapiens, UniProt P43220). The experiment can be described thus: Agonist activity at GLP-1R (unknown origin) expressed in HEK293 cells co-expressing CRE-Luc assessed as increase in intracellular cAMP accumulation in presence of 10% FBS by luciferase based assay. In general terms: cAMP levels reflect the balance of adenylyl cyclase and phosphodiesterase activity.

Experiment [2] concerns the target T1, Glucagon-like peptide 1 receptor. Put plainly: Agonist activity at GLP-1R (unknown origin) expressed in HEK293 cells co-expressing CRE-Luc assessed as increase in intracellular cAMP accumulation in presence of 2% HSA by luciferase based assay.
Experiment [3] has the same target. Put plainly: Agonist activity at GLP-1R (unknown origin) expressed in HEK293 cells co-expressing CRE-Luc assessed as increase in intracellular cAMP accumulation by luciferase based assay.

T1 sequence (P43220 whole entry): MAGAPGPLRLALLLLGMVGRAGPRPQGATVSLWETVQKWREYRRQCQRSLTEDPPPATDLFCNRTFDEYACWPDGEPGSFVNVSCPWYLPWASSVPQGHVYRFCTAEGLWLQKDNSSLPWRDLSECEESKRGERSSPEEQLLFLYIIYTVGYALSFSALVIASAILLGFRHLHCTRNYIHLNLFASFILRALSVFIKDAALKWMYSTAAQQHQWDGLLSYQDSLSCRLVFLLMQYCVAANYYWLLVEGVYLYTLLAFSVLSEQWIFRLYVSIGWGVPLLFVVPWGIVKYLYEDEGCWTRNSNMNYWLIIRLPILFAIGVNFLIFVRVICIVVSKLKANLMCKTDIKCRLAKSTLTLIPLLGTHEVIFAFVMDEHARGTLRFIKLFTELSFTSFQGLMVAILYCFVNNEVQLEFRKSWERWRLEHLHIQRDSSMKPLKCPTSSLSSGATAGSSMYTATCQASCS

The term EC50 denotes the concentration needed to bring the measured effect to its halfway point. For the compound `CCOc1ccc(Nc2ccc(/C(=C3C=C/C(=[N+](\CC)Cc4cccc(S(=O)(=O)[O-])c4)C=C/3C)c3ccc(N(CC)Cc4cccc(S(=O)(=O)NCCCCCC(=O)N[C@@H](CS(=O)(=O)O)C(=O)NCCOCCOCC(=O)NCCCC[C@H](NC(=O)[C@H](C)NC(=O)[C@H](C)NC(=O)[C@H](CCC(N)=O)NC(=O)CNC(=O)[C@H](CCC(=O)O)NC(=O)[C@H](CC(C)C)NC(=O)[C@H](Cc5ccc(O)cc5)NC(=O)[C@H](CO)NC(=O)[C@H](CO)NC(=O)[C@@H](NC(=O)[C@H](CC(=O)O)NC(=O)[C@H](CO)NC(=O)[C@@H](NC(=O)[C@H](Cc5ccccc5)NC(=O)[C@@H](NC(=O)CNC(=O)[C@H](CCC(=O)O)NC(=O)C(C)(C)NC(=O)[C@@H](N)Cc5c[nH]cn5)[C@@H](C)O)[C@@H](C)O)C(C)C)C(=O)N[C@@H](CCC(=O)O)C(=O)N[C@@H](Cc5ccccc5)C(=O)N[C@H](C(=O)N[C@@H](C)C(=O)N[C@@H](Cc5c[nH]c6ccccc56)C(=O)N[C@@H](CC(C)C)C(=O)N[C@H](C(=O)N[C@@H](CCCNC(=N)N)C(=O)NCC(=O)N[C@@H](CCCNC(=N)N)C(=O)NCC(=O)O)C(C)C)[C@@H](C)CC)c4)cc3C)cc2)cc1`, the results for the EC50 in experiment [1] (read-out: EC50), in experiment [2] (read-out: EC50) and in experiment [3] (read-out: EC50) were 1.16 pM, 4.25 pM and 1.13 pM, respectively.

`CCOc1ccc(Nc2ccc(/C(=C3C=C/C(=[N+](\CC)Cc4cccc(S(=O)(=O)[O-])c4)C=C/3C)c3ccc(N(CC)Cc4cccc(S(=O)(=O)NCCCCCC(=O)NCCOCCOCC(=O)NCCCC[C@H](NC(=O)[C@H](C)NC(=O)[C@H](C)NC(=O)[C@H](CCC(N)=O)NC(=O)CNC(=O)[C@H](CCC(=O)O)NC(=O)[C@H](CC(C)C)NC(=O)[C@H](Cc5ccc(O)cc5)NC(=O)[C@H](CO)NC(=O)[C@H](CO)NC(=O)[C@@H](NC(=O)[C@H](CC(=O)O)NC(=O)[C@H](CO)NC(=O)[C@@H](NC(=O)[C@H](Cc5ccccc5)NC(=O)[C@@H](NC(=O)CNC(=O)[C@H](CCC(=O)O)NC(=O)C(C)(C)NC(=O)[C@@H](N)Cc5c[nH]cn5)[C@@H](C)O)[C@@H](C)O)C(C)C)C(=O)N[C@@H](CCC(=O)O)C(=O)N[C@@H](Cc5ccccc5)C(=O)N[C@H](C(=O)N[C@@H](C)C(=O)N[C@@H](Cc5c[nH]c6ccccc56)C(=O)N[C@@H](CC(C)C)C(=O)N[C@H](C(=O)N[C@@H](CCCNC(=N)N)C(=O)NCC(=O)N[C@@H](CCCNC(=N)N)C(=O)NCC(=O)O)C(C)C)[C@@H](C)CC)c4)cc3C)cc2)cc1`: the concentration for a half-maximal effect (EC50) is 14.5 pM in experiment [2] (read-out: EC50) and 3.35 pM in experiment [3] (read-out: EC50).

As for `CCOc1ccc(Nc2ccc(/C(=C3C=C/C(=[N+](\CC)Cc4ccc(S(=O)(=O)[O-])cc4)C=C/3C)c3ccc(N(CC)Cc4cccc(S(=O)(=O)NCCCCCC(=O)NCCCC[C@H](NC(=O)[C@H](C)NC(=O)[C@H](C)NC(=O)[C@H](CCC(N)=O)NC(=O)CNC(=O)[C@H](CCC(=O)O)NC(=O)[C@H](CC(C)C)NC(=O)[C@H](Cc5ccc(O)cc5)NC(=O)[C@H](CO)NC(=O)[C@H](CO)NC(=O)[C@@H](NC(=O)[C@H](CC(=O)O)NC(=O)[C@H](CO)NC(=O)[C@@H](NC(=O)[C@H](Cc5ccccc5)NC(=O)[C@@H](NC(=O)CNC(=O)[C@H](CCC(=O)O)NC(=O)C(C)(C)NC(=O)[C@@H](N)Cc5c[nH]cn5)[C@@H](C)O)[C@@H](C)O)C(C)C)C(=O)N[C@@H](CCC(=O)O)C(=O)N[C@@H](Cc5ccccc5)C(=O)N[C@H](C(=O)N[C@@H](C)C(=O)N[C@@H](Cc5c[nH]c6ccccc56)C(=O)N[C@@H](CC(C)C)C(=O)N[C@H](C(=O)N[C@@H](CCCNC(=N)N)C(=O)NCC(=O)N[C@@H](CCCNC(=N)N)C(=O)NCC(=O)O)C(C)C)[C@@H](C)CC)c4)cc3C)cc2)cc1`, the EC50 in experiment [2] (read-out: EC50) amounted to 8.82 pM.

Turning to `CCOc1ccc(Nc2ccc(/C(=C3C=C/C(=[N+](\CC)Cc4cccc(S(=O)(=O)[O-])c4)C=C/3C)c3ccc(N(CC)Cc4cccc(S(=O)(=O)NCCCCCC(=O)NCCOCCOCC(=O)NCCOCCOCC(=O)NCCCC[C@H](NC(=O)[C@H](C)NC(=O)[C@H](C)NC(=O)[C@H](CCC(N)=O)NC(=O)CNC(=O)[C@H](CCC(=O)O)NC(=O)[C@H](CC(C)C)NC(=O)[C@H](Cc5ccc(O)cc5)NC(=O)[C@H](CO)NC(=O)[C@H](CO)NC(=O)[C@@H](NC(=O)[C@H](CC(=O)O)NC(=O)[C@H](CO)NC(=O)[C@@H](NC(=O)[C@H](Cc5ccccc5)NC(=O)[C@@H](NC(=O)CNC(=O)[C@H](CCC(=O)O)NC(=O)C(C)(C)NC(=O)[C@@H](N)Cc5c[nH]cn5)[C@@H](C)O)[C@@H](C)O)C(C)C)C(=O)N[C@@H](CCC(=O)O)C(=O)N[C@@H](Cc5ccccc5)C(=O)N[C@H](C(=O)N[C@@H](C)C(=O)N[C@@H](Cc5c[nH]c6ccccc56)C(=O)N[C@@H](CC(C)C)C(=O)N[C@H](C(=O)N[C@@H](CCCNC(=N)N)C(=O)NCC(=O)N[C@@H](CCCNC(=N)N)C(=O)NCC(=O)O)C(C)C)[C@@H](C)CC)c4)cc3C)cc2)cc1`, the EC50 in experiment [1] (read-out: EC50) was determined as 2.93 pM; in experiment [2] (read-out: EC50), 3.94 pM; in experiment [3] (read-out: EC50) it was 0.79 pM.

On to `CCOc1ccc(Nc2ccc(/C(=C3C=C/C(=[N+](\CC)Cc4cccc(S(=O)(=O)[O-])c4)C=C/3C)c3ccc(N(CC)Cc4cccc(S(=O)(=O)NCCCCCC(=O)N[C@@H](CS(=O)(=O)O)C(=O)N[C@@H](CS(=O)(=O)O)C(=O)NCCCC[C@H](NC(=O)[C@H](C)NC(=O)[C@H](C)NC(=O)[C@H](CCC(N)=O)NC(=O)CNC(=O)[C@H](CCC(=O)O)NC(=O)[C@H](CC(C)C)NC(=O)[C@H](Cc5ccc(O)cc5)NC(=O)[C@H](CO)NC(=O)[C@H](CO)NC(=O)[C@@H](NC(=O)[C@H](CC(=O)O)NC(=O)[C@H](CO)NC(=O)[C@@H](NC(=O)[C@H](Cc5ccccc5)NC(=O)[C@@H](NC(=O)CNC(=O)[C@H](CCC(=O)O)NC(=O)C(C)(C)NC(=O)[C@@H](N)Cc5c[nH]cn5)[C@@H](C)O)[C@@H](C)O)C(C)C)C(=O)N[C@@H](CCC(=O)O)C(=O)N[C@@H](Cc5ccccc5)C(=O)N[C@H](C(=O)N[C@@H](C)C(=O)N[C@@H](Cc5c[nH]c6ccccc56)C(=O)N[C@@H](CC(C)C)C(=O)N[C@H](C(=O)N[C@@H](CCCNC(=N)N)C(=O)NCC(=O)N[C@@H](CCCNC(=N)N)C(=O)NCC(=O)O)C(C)C)[C@@H](C)CC)c4)cc3C)cc2)cc1`, for which the values for the 50% effective concentration (EC50) in experiment [1] (read-out: EC50), in experiment [2] (read-out: EC50) and in experiment [3] (read-out: EC50) were 6.98 pM, 7.08 pM and 1.66 pM, respectively.

As for `CC[C@H](C)[C@H](NC(=O)[C@H](Cc1ccccc1)NC(=O)[C@H](CCC(=O)O)NC(=O)[C@H](CCCCN)NC(=O)[C@H](C)NC(=O)[C@H](C)NC(=O)[C@H](CCC(N)=O)NC(=O)CNC(=O)[C@H](CCC(=O)O)NC(=O)[C@H](CC(C)C)NC(=O)[C@H](Cc1ccc(O)cc1)NC(=O)[C@H](CO)NC(=O)[C@H](CO)NC(=O)[C@@H](NC(=O)[C@H](CC(=O)O)NC(=O)[C@H](CO)NC(=O)[C@@H](NC(=O)[C@H](Cc1ccccc1)NC(=O)[C@@H](NC(=O)CNC(=O)[C@@H](N)CCC(=O)O)[C@@H](C)O)[C@@H](C)O)C(C)C)C(=O)N[C@@H](C)C(=O)N[C@@H](Cc1c[nH]c2ccccc12)C(=O)N[C@@H](CC(C)C)C(=O)N[C@H](C(=O)N[C@@H](CCCNC(=N)N)C(=O)NCC(=O)N[C@@H](CCCNC(=N)N)C(=O)NCC(N)=O)C(C)C`, the 50% effective concentration (EC50) result in experiment [1] (hek293), in experiment [2] (hek293) and in experiment [3] (hek293) was “No_effect” throughout.

For the compound `CCOc1ccc(Nc2ccc(/C(=C3C=C/C(=[N+](\CC)Cc4cccc(S(=O)(=O)[O-])c4)C=C/3C)c3ccc(N(CC)Cc4cccc(S(=O)(=O)NCCCCCC(=O)N[C@@H](CCC(=O)NCCOCCOCC(=O)NCCCC[C@H](NC(=O)[C@H](C)NC(=O)[C@H](C)NC(=O)[C@H](CCC(N)=O)NC(=O)CNC(=O)[C@H](CCC(=O)O)NC(=O)[C@H](CC(C)C)NC(=O)[C@H](Cc5ccc(O)cc5)NC(=O)[C@H](CO)NC(=O)[C@H](CO)NC(=O)[C@@H](NC(=O)[C@H](CC(=O)O)NC(=O)[C@H](CO)NC(=O)[C@@H](NC(=O)[C@H](Cc5ccccc5)NC(=O)[C@@H](NC(=O)CNC(=O)[C@H](CCC(=O)O)NC(=O)C(C)(C)NC(=O)[C@@H](N)Cc5c[nH]cn5)[C@@H](C)O)[C@@H](C)O)C(C)C)C(=O)N[C@@H](CCC(=O)O)C(=O)N[C@@H](Cc5ccccc5)C(=O)N[C@H](C(=O)N[C@@H](C)C(=O)N[C@@H](Cc5c[nH]c6ccccc56)C(=O)N[C@@H](CC(C)C)C(=O)N[C@H](C(=O)N[C@@H](CCCNC(=N)N)C(=O)NCC(=O)N[C@@H](CCCNC(=N)N)C(=O)NCC(=O)O)C(C)C)[C@@H](C)CC)C(=O)O)c4)cc3C)cc2)cc1`, the EC50 was 3.29 pM in experiment [2] (read-out: EC50) and 0.63 pM in experiment [3] (read-out: EC50).

In the case of `CCOc1ccc(Nc2ccc(/C(=C3C=C/C(=[N+](\CC)Cc4cccc(S(=O)(=O)[O-])c4)C=C/3C)c3ccc(N(CC)Cc4cccc(S(=O)(=O)NCCCCCC(=O)NCCOCCOCCOCCOCCOCCOCCOCCOCCC(=O)NCCCC[C@H](NC(=O)[C@H](C)NC(=O)[C@H](C)NC(=O)[C@H](CCC(N)=O)NC(=O)CNC(=O)[C@H](CCC(=O)O)NC(=O)[C@H](CC(C)C)NC(=O)[C@H](Cc5ccc(O)cc5)NC(=O)[C@H](CO)NC(=O)[C@H](CO)NC(=O)[C@@H](NC(=O)[C@H](CC(=O)O)NC(=O)[C@H](CO)NC(=O)[C@@H](NC(=O)[C@H](Cc5ccccc5)NC(=O)[C@@H](NC(=O)CNC(=O)[C@H](CCC(=O)O)NC(=O)C(C)(C)NC(=O)[C@@H](N)Cc5c[nH]cn5)[C@@H](C)O)[C@@H](C)O)C(C)C)C(=O)N[C@@H](CCC(=O)O)C(=O)N[C@@H](Cc5ccccc5)C(=O)N[C@H](C(=O)N[C@@H](C)C(=O)N[C@@H](Cc5c[nH]c6ccccc56)C(=O)N[C@@H](CC(C)C)C(=O)N[C@H](C(=O)N[C@@H](CCCNC(=N)N)C(=O)NCC(=O)N[C@@H](CCCNC(=N)N)C(=O)NCC(=O)O)C(C)C)[C@@H](C)CC)c4)cc3C)cc2)cc1`, the EC50 in experiment [1] (read-out: EC50) is 0.93 pM; in experiment [2] (read-out: EC50), 2.44 pM; in experiment [3] (read-out: EC50) it was 0.16 pM.

These data come from ChEMBL document CHEMBL6109125, “A New Protractor Potentiates Glucagon-Like Peptide 1 with Slow-Release Depot and Long-Term Action” (J Med Chem, 2025).
